In ChEMBL document CHEMBL1145313, “Identification of potent and highly selective chiral tri-amine and tetra-amine mu opioid receptors ligands: an example of lead optimization using mixture-based libraries” (Bioorg Med Chem Lett, 2006):

Columns and labels:
[1] = target: Mu-type opioid receptor (Rattus norvegicus, UniProt P33535); test: Displacement of [3H]DAMGO from mu opioid receptor in rat brain homogenate; assay type: tissue-based
[2] = target: Kappa-type opioid receptor (Homo sapiens, UniProt P41145); test: Displacement of [3H]U-69593 from kappa opioid receptor
[3] = target: Delta-type opioid receptor (Homo sapiens, UniProt P41143); test: Displacement of [3H]DPDE from delta opioid receptor
Delta-type opioid receptor, sequence (P41143 whole entry): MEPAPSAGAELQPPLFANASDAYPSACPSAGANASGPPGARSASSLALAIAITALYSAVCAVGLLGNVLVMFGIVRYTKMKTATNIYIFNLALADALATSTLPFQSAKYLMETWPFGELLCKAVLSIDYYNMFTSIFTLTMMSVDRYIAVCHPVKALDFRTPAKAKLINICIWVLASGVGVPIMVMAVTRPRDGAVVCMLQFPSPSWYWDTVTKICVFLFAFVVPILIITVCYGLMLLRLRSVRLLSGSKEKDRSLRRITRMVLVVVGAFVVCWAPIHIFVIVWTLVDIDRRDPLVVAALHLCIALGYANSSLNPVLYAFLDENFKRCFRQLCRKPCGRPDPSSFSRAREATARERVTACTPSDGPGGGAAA

Mu-type opioid receptor, sequence (P33535 whole entry): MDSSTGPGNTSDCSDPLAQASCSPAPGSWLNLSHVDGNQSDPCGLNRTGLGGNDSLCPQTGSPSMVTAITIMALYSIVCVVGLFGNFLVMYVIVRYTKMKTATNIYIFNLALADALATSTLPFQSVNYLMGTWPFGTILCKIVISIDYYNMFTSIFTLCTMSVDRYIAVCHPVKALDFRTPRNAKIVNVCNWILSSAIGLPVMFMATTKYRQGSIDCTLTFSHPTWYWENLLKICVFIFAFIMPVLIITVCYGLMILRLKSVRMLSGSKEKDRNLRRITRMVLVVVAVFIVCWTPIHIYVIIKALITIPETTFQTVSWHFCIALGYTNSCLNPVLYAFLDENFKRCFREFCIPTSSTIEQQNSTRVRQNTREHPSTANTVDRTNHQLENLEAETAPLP
Kappa-type opioid receptor, sequence (P41145 whole entry): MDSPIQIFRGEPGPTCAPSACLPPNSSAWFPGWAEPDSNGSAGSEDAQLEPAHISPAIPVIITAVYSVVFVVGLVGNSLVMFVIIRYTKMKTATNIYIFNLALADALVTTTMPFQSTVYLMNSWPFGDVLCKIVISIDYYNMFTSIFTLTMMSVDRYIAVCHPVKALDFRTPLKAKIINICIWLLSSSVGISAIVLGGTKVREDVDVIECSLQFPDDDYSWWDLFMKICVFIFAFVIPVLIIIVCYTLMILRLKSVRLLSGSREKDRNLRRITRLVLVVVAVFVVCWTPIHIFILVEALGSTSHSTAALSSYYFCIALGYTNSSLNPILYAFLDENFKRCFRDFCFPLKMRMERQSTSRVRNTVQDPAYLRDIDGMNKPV

Structure (SMILES) | IC50 [1] | IC50 [2] | IC50 [3]
CCN[C@H](CN[C@H](CN[C@H](CN[C@H](CN[C@@H](Cc1ccc(O)cc1)CN1CCC[C@H]1CN)Cc1ccccc1)Cc1ccc(O)cc1)Cc1ccc(O)cc1)Cc1ccc(O)cc1 | 148 nM | – | –
CCN[C@H](CN[C@H](CN[C@H](CN[C@H](CN[C@@H](CN[C@H](CN)CCSC)[C@@H](C)O)Cc1ccccc1)Cc1ccccc1)Cc1ccc(O)cc1)Cc1ccc(O)cc1 | 115 nM | – | –
CCN[C@H](CN[C@H](CN[C@H](CN[C@H](CN[C@H](CN[C@@H](CN)CO)Cc1ccc(O)cc1)Cc1ccccc1)Cc1ccc(O)cc1)Cc1ccc(O)cc1)Cc1ccc(O)cc1 | 345 nM | – | –
CCN[C@H](CN[C@H](CN[C@H](CN[C@H](CN[C@@H](Cc1ccc(O)cc1)CN1CCC[C@H]1CN)Cc1ccccc1)Cc1ccccc1)Cc1ccc(O)cc1)Cc1ccc(O)cc1 | 48 nM | – | –
CN[C@H](CN[C@H](CN)Cc1ccc(O)cc1)Cc1ccc(O)cc1 | 111 nM | 9670 nM | 10900 nM
CCN[C@H](CN[C@H](CN[C@@H](Cc1ccccc1)CN1CCC[C@H]1CN[C@@H](CN[C@H](CN)Cc1ccc(O)cc1)[C@@H](C)O)Cc1ccc(O)cc1)Cc1ccc(O)cc1 | 20 nM | – | –
CCN[C@H](CN[C@H](CN[C@@H](Cc1ccc(O)cc1)CN1CCC[C@H]1CN)Cc1ccc(O)cc1)Cc1ccc(O)cc1 | 13 nM | – | –
CCN[C@H](CN[C@H](CN[C@H](CN[C@H](CN[C@@H](CN[C@@H](CN)CO)[C@@H](C)O)Cc1ccccc1)Cc1ccc(O)cc1)Cc1ccc(O)cc1)Cc1ccc(O)cc1 | 163 nM | – | –
CCN[C@H](CN[C@H](CN[C@H](CN[C@H](CN[C@@H](CN[C@H](CN)CCSC)[C@@H](C)O)Cc1ccccc1)Cc1ccc(O)cc1)Cc1ccc(O)cc1)Cc1ccc(O)cc1 | 181 nM | – | –
CCN[C@H](CN[C@H](CN[C@H](CN[C@H](CN[C@H](CN[C@@H](CN)CO)Cc1ccc(O)cc1)Cc1ccccc1)Cc1ccccc1)Cc1ccc(O)cc1)Cc1ccc(O)cc1 | 66 nM | – | –
CN(C)[C@H](CN[C@H](CN)Cc1ccc(O)cc1)Cc1ccc(O)cc1 | 262 nM | 22600 nM | 17900 nM
CCN[C@H](CN[C@H](CN[C@@H](Cc1ccccc1)CN1CCC[C@H]1CN[C@H](CN[C@H](CN)CO)Cc1ccc(O)cc1)Cc1ccc(O)cc1)Cc1ccc(O)cc1 (stereo in doubt; 5) | 19 nM | – | –
CCN[C@H](CN[C@H](CN[C@H](CN[C@H](CN[C@H](CN[C@H](CN)Cc1ccccc1)Cc1ccc(O)cc1)Cc1ccccc1)Cc1ccc(O)cc1)Cc1ccc(O)cc1)Cc1ccc(O)cc1 | 258 nM | – | –
CCN[C@H](CN[C@H](CN[C@@H](Cc1ccc(O)cc1)CN1CCC[C@H]1CN[C@@H](Cc1ccc(O)cc1)CN1CCC[C@H]1CN)Cc1ccc(O)cc1)Cc1ccc(O)cc1 | 79 nM | – | –
CNC[C@H](Cc1ccc(O)cc1)N(Cc1ccccc1)C[C@H](Cc1ccc(O)cc1)NC | 1210 nM | 11100 nM | 10200 nM
CN[C@@H](Cc1ccc(O)cc1)CN(C)[C@H](CNCc1ccccc1)Cc1ccc(O)cc1 | – | 3850 nM | 3970 nM
CCN[C@H](CN[C@H](CN[C@@H](Cc1ccccc1)CN1CCC[C@H]1CN[C@@H](Cc1ccc(O)cc1)CN1CCC[C@H]1CN)Cc1ccc(O)cc1)Cc1ccc(O)cc1 | 18 nM | – | –
CN(C)[C@@H](Cc1ccc(O)cc1)CN(C)[C@H](CNCc1ccccc1)Cc1ccc(O)cc1 | 38 nM | 2360 nM | 8260 nM
CNC[C@H](Cc1ccc(O)cc1)N(Cc1ccccc1)C[C@@H](N)Cc1ccc(O)cc1 | 882 nM | 14400 nM | 35600 nM
CCN[C@H](CN[C@H](CN[C@H](CN[C@H](CN[C@@H](CN1CCC[C@H]1CN)[C@@H](C)O)Cc1ccccc1)Cc1ccc(O)cc1)Cc1ccc(O)cc1)Cc1ccc(O)cc1 | 155 nM | – | –
CCN[C@H](CN[C@H](CN[C@H](CN[C@H](CN[C@@H](CN[C@H](CN)Cc1ccc(O)cc1)[C@@H](C)O)Cc1ccccc1)Cc1ccc(O)cc1)Cc1ccc(O)cc1)Cc1ccc(O)cc1 | 200 nM | – | –
CCN[C@H](CN[C@H](CN[C@H](CN[C@H](CN[C@H](CN[C@H](CN)CCSC)Cc1ccc(O)cc1)Cc1ccccc1)Cc1ccc(O)cc1)Cc1ccc(O)cc1)Cc1ccc(O)cc1 | 260 nM | – | –
CCN[C@H](CN[C@H](CN)Cc1ccc(O)cc1)Cc1ccc(O)cc1 | 344 nM | – | –
CCN[C@H](CN[C@H](CN[C@H](CN[C@H](CN[C@@H](CN[C@@H](CN)CO)[C@@H](C)O)Cc1ccccc1)Cc1ccccc1)Cc1ccc(O)cc1)Cc1ccc(O)cc1 | 90 nM | – | –
CCN[C@H](CN[C@H](CN[C@H](CN)Cc1ccccc1)Cc1ccc(O)cc1)Cc1ccc(O)cc1 | 47 nM | – | –
CCN[C@H](CN[C@H](CN[C@H](CN[C@H](CN[C@H](CN[C@H](CN)CCSC)Cc1ccc(O)cc1)Cc1ccccc1)Cc1ccccc1)Cc1ccc(O)cc1)Cc1ccc(O)cc1 | 126 nM | – | –
CCN[C@H](CN[C@H](CN[C@H](CN[C@H](CN[C@H](CN[C@H](CN)Cc1ccc(O)cc1)Cc1ccc(O)cc1)Cc1ccccc1)Cc1ccc(O)cc1)Cc1ccc(O)cc1)Cc1ccc(O)cc1 | 261 nM | – | –
CCN[C@H](CN[C@H](CN[C@@H](Cc1ccc(O)cc1)CN1CCC[C@H]1CN[C@@H](CN1CCC[C@H]1CN)[C@@H](C)O)Cc1ccc(O)cc1)Cc1ccc(O)cc1 | 41 nM | – | –

Structure (SMILES) | IC50 [1] | IC50 [2] | IC50 [3]
CCN[C@H](CN[C@H](CN[C@@H](Cc1ccc(O)cc1)CN1CCC[C@H]1CN[C@H](CN[C@H](CN)CO)Cc1ccc(O)cc1)Cc1ccc(O)cc1)Cc1ccc(O)cc1 | 89 nM | – | –
CCN[C@H](CN[C@H](CN[C@@H](Cc1ccccc1)CN1CCC[C@H]1CN[C@H](CN)Cc1ccc(O)cc1)Cc1ccc(O)cc1)Cc1ccc(O)cc1 | 24 nM | – | –
CCN[C@H](CN[C@H](CN[C@@H](Cc1ccccc1)CN1CCC[C@H]1CN[C@H](CN[C@H](CN)Cc1ccc(O)cc1)Cc1ccc(O)cc1)Cc1ccc(O)cc1)Cc1ccc(O)cc1 | 27 nM | – | –
CCN[C@H](CN[C@H](CN[C@@H](Cc1ccccc1)CN1CCC[C@H]1CN[C@@H](CN[C@H](CN)Cc1ccccc1)[C@@H](C)O)Cc1ccc(O)cc1)Cc1ccc(O)cc1 | 19 nM | – | –
CCN[C@H](CN[C@H](CN[C@@H](Cc1ccc(O)cc1)CN1CCC[C@H]1CN[C@@H](CN[C@@H](CN)CO)[C@@H](C)O)Cc1ccc(O)cc1)Cc1ccc(O)cc1 | 32 nM | – | –
CCN[C@H](CN[C@H](CN[C@@H](Cc1ccc(O)cc1)CN1CCC[C@H]1CN[C@@H](CN[C@H](CN)CCSC)[C@@H](C)O)Cc1ccc(O)cc1)Cc1ccc(O)cc1 | 112 nM | – | –
CCN[C@H](CN[C@H](CN[C@@H](Cc1ccc(O)cc1)CN1CCC[C@H]1CN[C@@H](CN[C@H](CN)Cc1ccc(O)cc1)[C@@H](C)O)Cc1ccc(O)cc1)Cc1ccc(O)cc1 | 61 nM | – | –
CCN[C@H](CN[C@H](CN[C@@H](Cc1ccc(O)cc1)CN1CCC[C@H]1CN[C@@H](CN[C@H](CN)Cc1ccccc1)[C@@H](C)O)Cc1ccc(O)cc1)Cc1ccc(O)cc1 | 128 nM | – | –
CCN[C@H](CN[C@H](CN[C@H](CN)Cc1ccc(O)cc1)Cc1ccc(O)cc1)Cc1ccc(O)cc1 | 138 nM | – | –
CCN[C@H](CN[C@H](CN[C@@H](Cc1ccccc1)CN1CCC[C@H]1CN[C@H](CN[C@H](CN)CCSC)Cc1ccc(O)cc1)Cc1ccc(O)cc1)Cc1ccc(O)cc1 | 34 nM | – | –
CCN[C@H](CN[C@H](CN[C@@H](Cc1ccccc1)CN1CCC[C@H]1CN[C@@H](CN1CCC[C@H]1CN)[C@@H](C)O)Cc1ccc(O)cc1)Cc1ccc(O)cc1 | 15 nM | – | –
CCN[C@H](CN[C@H](CN[C@H](CN[C@H](CN[C@H](CN)Cc1ccc(O)cc1)Cc1ccc(O)cc1)Cc1ccc(O)cc1)Cc1ccc(O)cc1)Cc1ccc(O)cc1 | 146 nM | – | –
CCN[C@H](CN[C@H](CN[C@@H](Cc1ccccc1)CN1CCC[C@H]1CN[C@@H](CN[C@@H](CN)CO)[C@@H](C)O)Cc1ccc(O)cc1)Cc1ccc(O)cc1 | 19 nM | – | –
CN(C[C@@H](N)Cc1ccc(O)cc1)[C@H](CNCc1ccccc1)Cc1ccc(O)cc1 | 10 nM | 4140 nM | 10200 nM
CCN[C@H](CN[C@H](CN[C@H](CN[C@H](CN[C@@H](CN[C@H](CN)Cc1ccc(O)cc1)[C@@H](C)O)Cc1ccccc1)Cc1ccccc1)Cc1ccc(O)cc1)Cc1ccc(O)cc1 | 78 nM | – | –
CCN[C@H](CN[C@H](CN[C@H](CN[C@H](CN)Cc1ccc(O)cc1)Cc1ccc(O)cc1)Cc1ccc(O)cc1)Cc1ccc(O)cc1 | 96 nM | – | –
CCN[C@H](CN[C@H](CN[C@@H](Cc1ccc(O)cc1)CN1CCC[C@H]1CN[C@H](CN[C@H](CN)CCSC)Cc1ccc(O)cc1)Cc1ccc(O)cc1)Cc1ccc(O)cc1 | 113 nM | – | –
NC[C@H](Cc1ccc(O)cc1)NC[C@@H](N)Cc1ccc(O)cc1 | 6040 nM | 32200 nM | –
CCN[C@H](CN[C@H](CN[C@H](CN[C@H](CN[C@H](CN[C@H](CN)Cc1ccccc1)Cc1ccc(O)cc1)Cc1ccccc1)Cc1ccccc1)Cc1ccc(O)cc1)Cc1ccc(O)cc1 | 176 nM | – | –
CCN[C@H](CN[C@H](CN[C@H](CN[C@H](CN[C@H](CN[C@H](CN)Cc1ccc(O)cc1)Cc1ccc(O)cc1)Cc1ccccc1)Cc1ccccc1)Cc1ccc(O)cc1)Cc1ccc(O)cc1 | 95 nM | – | –
CCN[C@H](CN[C@H](CN[C@@H](Cc1ccccc1)CN1CCC[C@H]1CN[C@@H](CN[C@H](CN)CCSC)[C@@H](C)O)Cc1ccc(O)cc1)Cc1ccc(O)cc1 | 14 nM | – | –
CCN[C@H](CN[C@H](CN[C@@H](Cc1ccccc1)CN1CCC[C@H]1CN[C@H](CN[C@H](CN)Cc1ccccc1)Cc1ccc(O)cc1)Cc1ccc(O)cc1)Cc1ccc(O)cc1 | 27 nM | – | –
CCN[C@H](CN[C@H](CN[C@H](CN[C@H](CN[C@@H](CN[C@H](CN)Cc1ccccc1)[C@@H](C)O)Cc1ccccc1)Cc1ccccc1)Cc1ccc(O)cc1)Cc1ccc(O)cc1 | 108 nM | – | –
CCN[C@H](CN[C@H](CN[C@@H](Cc1ccccc1)CN1CCC[C@H]1CN[C@H](CN[C@H](CN)CO)Cc1ccc(O)cc1)Cc1ccc(O)cc1)Cc1ccc(O)cc1 (stereo in doubt) | 67 nM | – | –
CCN[C@H](CN[C@H](CN[C@@H](Cc1ccc(O)cc1)CN1CCC[C@H]1CN[C@H](CN[C@H](CN)Cc1ccc(O)cc1)Cc1ccc(O)cc1)Cc1ccc(O)cc1)Cc1ccc(O)cc1 | 87 nM | – | –
CCN[C@H](CN[C@H](CN[C@H](CN[C@H](CN[C@@H](CN1CCC[C@H]1CN)[C@@H](C)O)Cc1ccccc1)Cc1ccccc1)Cc1ccc(O)cc1)Cc1ccc(O)cc1 | 82 nM | – | –
CCN[C@H](CN[C@H](CN[C@@H](Cc1ccc(O)cc1)CN1CCC[C@H]1CN[C@H](CN[C@H](CN)Cc1ccccc1)Cc1ccc(O)cc1)Cc1ccc(O)cc1)Cc1ccc(O)cc1 | 83 nM | – | –
